{
  "source": "patent US20230167088A1",
  "about": "“1-PYRAZINYLPYRAZOLYL-3-OXYALKYL ACIDS AND THEIR DERIVATIVES, AND THEIR USE FOR CONTROL OF UNDESIRED PLANT GROWTH” (BAYER AKTIENGESELLSCHAFT, priority 2020, published 2023)",
  "key": {"[1]": {"tested_on": "ALOMY", "assay": "Herbicidal post-emergence action 1a (greenhouse pots, visual rating)", "format": "in vivo, Alopecurus myosuroides", "conditions": "Dosage 320 g/ha; rated visually about 3 weeks after treatment; 100% = plants have died, 0% = like control plants", "outline": "(§1)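 Visual scoring versus untreated plants (100% = plants dead, 0% = as control) followed roughly 3 weeks in the greenhouse after treatment. Plants grown in sandy loam pots had been sprayed on green parts at the one-leaf stage, 2–3 weeks post-sowing, with aqueous WP/EC preparations containing 0.5% additive, 600 l/ha, at 320 and/or 80 g/ha.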"}, "[2]": {"tested_on": "AVEFA", "assay": "Herbicidal post-emergence action 1a (greenhouse pots, visual rating)", "format": "in vivo, Avena fatua", "conditions": "Dosage 320 g/ha; rated visually about 3 weeks after treatment; 100% = plants have died, 0% = like control plants", "outline": "as §1"}, "[3]": {"tested_on": "ECHCG", "assay": "Herbicidal post-emergence action 1a (greenhouse pots, visual rating)", "format": "in vivo, Echinochloa crus-galli", "conditions": "rated visually about 3 weeks after treatment, 100% = plants have died, 0% = like control plants", "outline": "as §1"}, "[4]": {"tested_on": "LOLRI", "assay": "Herbicidal post-emergence action 1a (greenhouse pots, visual rating)", "format": "in vivo, Lolium rigidum", "conditions": "rated visually about 3 weeks after treatment, 100% = plants have died, 0% = like control plants", "outline": "as §1"}, "[5]": {"tested_on": "SETVI", "assay": "Herbicidal post-emergence action 1a (greenhouse pots, visual rating)", "format": "in vivo, Setaria viridis", "conditions": "rated visually about 3 weeks after treatment, 100% = plants have died, 0% = like control plants", "outline": "as §1"}, "[6]": {"tested_on": "ABUTH", "assay": "Herbicidal post-emergence action 1a (greenhouse pots, visual rating)", "format": "in vivo, Abutilon theophrasti", "conditions": "visual rating about 3 weeks after treatment", "outline": "as §1"}, "[7]": {"tested_on": "AMARE", "assay": "Herbicidal post-emergence action 1a (greenhouse pots, visual rating)", "format": "in vivo, Amaranthus retroflexus", "conditions": "visual rating about 3 weeks after treatment", "outline": "as §1"}, "[8]": {"tested_on": "MATIN", "assay": "Herbicidal post-emergence action 1a (greenhouse pots, visual rating)", "format": "in vivo, Matricaria inodora", "conditions": "visual rating about 3 weeks after treatment", "outline": "as §1"}, "[9]": {"tested_on": "PHBPU", "assay": "Herbicidal post-emergence action 1a (greenhouse pots, visual rating)", "format": "in vivo, Pharbitis purpurea", "conditions": "visual rating about 3 weeks after treatment", "outline": "as §1"}, "[10]": {"tested_on": "POLCO", "assay": "Herbicidal post-emergence action 1a (greenhouse pots, visual rating)", "format": "in vivo, Polygonum convolvulus", "conditions": "visual rating about 3 weeks after treatment", "outline": "as §1"}, "[11]": {"tested_on": "VERPE", "assay": "Herbicidal post-emergence action 1a (greenhouse pots, visual rating)", "format": "in vivo, Veronica persica", "conditions": "visual rating about 3 weeks after treatment", "outline": "as §1"}, "[12]": {"tested_on": "ALOMY", "assay": "Herbicidal pre-emergence action 2a (greenhouse pots, visual scoring)", "format": "in vivo, Alopecurus myosuroides", "conditions": "dosage 320 g/ha, visual scoring after about 3 weeks", "outline": "(§2)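 Pots of covered seed were sprayed pre-emergence at 320 and/or 80 g/ha. Roughly three weeks of greenhouse growth preceded visual scoring in percent versus untreated controls.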"}, "[13]": {"tested_on": "AVEFA", "assay": "Herbicidal pre-emergence action 2a (greenhouse pots, visual scoring)", "format": "in vivo, Avena fatua", "conditions": "dosage 320 g/ha, visual scoring after about 3 weeks", "outline": "as §2"}, "[14]": {"tested_on": "LOLRI", "assay": "Herbicidal pre-emergence action 2a (greenhouse pots, visual scoring)", "format": "in vivo, Lolium rigidum", "conditions": "dosage 320 g/ha, visual scoring after about 3 weeks vs untreated controls", "outline": "as §2"}, "[15]": {"tested_on": "SETVI", "assay": "Herbicidal pre-emergence action 2a (greenhouse pots, visual scoring)", "format": "in vivo, Setaria viridis", "conditions": "dosage 320 g/ha, visual scoring after about 3 weeks vs untreated controls", "outline": "as §2"}, "[16]": {"tested_on": "ABUTH", "assay": "Herbicidal pre-emergence action 2a (greenhouse pots, visual scoring)", "format": "in vivo, Abutilon theophrasti", "conditions": "dosage 320 g/ha, visual scoring after about 3 weeks vs untreated controls", "excerpt": "(§3) [table] a) Seeds of monocotyledonous and dicotyledonous weed plants and crop plants are placed in plastic or organic plant pots and covered with soil. The compounds of the invention, formulated in the form of wettable powders (WP) or as emulsion concentrates (EC), are then applied onto the surface of the covering soil as aqueous suspension or emulsion with addition of 0.5% additive at a water application rate of 600 1/ha (converted). After the treatment, the pots are placed in a greenhouse and kept under good growth conditions for the trial plants. After about 3 weeks, the effect of the preparations is scored visually in comparison with untreated controls as percentages. For example, 100% activity=the plants have died, 0% activity=like control plants. Tables B1 to B15 below show the effects of selected compounds of the general formula (I) according to Tables 1 and 2 on various harmful plants and an application rate corresponding to 320 g/ha and/or 80 g/ha, which were obtained by the experimental procedure mentioned above."}, "[17]": {"tested_on": "AMARE", "assay": "Herbicidal pre-emergence action 2a (greenhouse pots, visual scoring)", "format": "in vivo, Amaranthus retroflexus", "conditions": "dosage 320 g/ha, visual scoring after about 3 weeks vs untreated controls", "outline": "as §2"}, "[18]": {"tested_on": "MATIN", "assay": "Herbicidal pre-emergence action 2a (greenhouse pots, visual scoring)", "format": "in vivo, Matricaria inodora", "conditions": "dosage 320 g/ha, visual scoring after about 3 weeks vs untreated controls", "outline": "as §2"}, "[19]": {"tested_on": "PHBPU", "assay": "Herbicidal pre-emergence action 2a (greenhouse pots, visual scoring)", "format": "in vivo, Pharbitis purpurea", "conditions": "dosage 320 g/ha, visual scoring after about 3 weeks vs untreated controls", "excerpt": "as §3"}, "[20]": {"tested_on": "POLCO", "assay": "Herbicidal pre-emergence action 2a (greenhouse pots, visual scoring)", "format": "in vivo, Polygonum convolvulus", "conditions": "dosage 320 g/ha, visual scoring after about 3 weeks vs untreated controls", "outline": "as §2"}, "[21]": {"tested_on": "VERPE", "assay": "Herbicidal pre-emergence action 2a (greenhouse pots, visual scoring)", "format": "in vivo, Veronica persica", "conditions": "dosage 320 g/ha, visual scoring after about 3 weeks vs untreated controls", "outline": "as §2"}},
  "data": [
    {"smiles": "C[C@@H](Oc1nn(-c2cnccn2)c(-c2cncc(F)c2)c1Cl)C(=O)O", "note": "[Example I-97]", "values": [
      {"measurement": "Post-emergence action against ALOMY in %", "setting": "[1]", "value": 90, "unit": "%"},
      {"measurement": "Post-emergence action against AVEFA in %", "setting": "[2]", "value": 100, "unit": "%"},
      {"measurement": "Post-emergence action against ECHCG in %", "setting": "[3]; Dosage 80 g/ha", "value": 90, "unit": "%"},
      {"measurement": "Post-emergence action against ECHCG in %", "setting": "[3]; Dosage 320 g/ha", "value": 90, "unit": "%"},
      {"measurement": "Post-emergence action against LOLRI in %", "setting": "[4]; Dosage 80 g/ha", "value": 90, "unit": "%"},
      {"measurement": "Post-emergence action against LOLRI in %", "setting": "[4]; Dosage 320 g/ha", "value": 100, "unit": "%"},
      {"measurement": "Post-emergence action against SETVI in %", "setting": "[5]; Dosage 80 g/ha", "value": 90, "unit": "%"},
      {"measurement": "Post-emergence action against SETVI in %", "setting": "[5]; Dosage 320 g/ha", "value": 90, "unit": "%"},
      {"measurement": "Post-emergence action against ABUTH in %", "setting": "[6]; dosage 80 g/ha", "value": 90, "unit": "%"},
      {"measurement": "Post-emergence action against ABUTH in %", "setting": "[6]; dosage 320 g/ha", "value": 90, "unit": "%"},
      {"measurement": "Post-emergence action against AMARE in %", "setting": "[7]; dosage 80 g/ha", "value": 90, "unit": "%"},
      {"measurement": "Post-emergence action against AMARE in %", "setting": "[7]; dosage 320 g/ha", "value": 90, "unit": "%"},
      {"measurement": "Post-emergence action against MATIN in %", "setting": "[8]; dosage 80 g/ha", "value": 90, "unit": "%"},
      {"measurement": "Post-emergence action against MATIN in %", "setting": "[8]; dosage 320 g/ha", "value": 90, "unit": "%"},
      {"measurement": "Post-emergence action against PHBPU in %", "setting": "[9]; dosage 80 g/ha", "value": 90, "unit": "%"},
      {"measurement": "Post-emergence action against PHBPU in %", "setting": "[9]; dosage 320 g/ha", "value": 100, "unit": "%"},
      {"measurement": "Post-emergence action against POLCO in %", "setting": "[10]; dosage 80 g/ha", "value": 90, "unit": "%"},
      {"measurement": "Post-emergence action against POLCO in %", "setting": "[10]; dosage 320 g/ha", "value": 90, "unit": "%"},
      {"measurement": "Post-emergence action against VERPE in %", "setting": "[11]; dosage 80 g/ha", "value": 90, "unit": "%"},
      {"measurement": "Post-emergence action against VERPE in %", "setting": "[11]; dosage 320 g/ha", "value": 90, "unit": "%"},
      {"measurement": "Pre-emergence action against ALOMY in %", "setting": "[12]", "value": 100, "unit": "%"},
      {"measurement": "Pre-emergence action against AVEFA in %", "setting": "[13]", "value": 90, "unit": "%"},
      {"measurement": "Pre-emergence action against LOLRI in %", "setting": "[14]", "value": 100, "unit": "%"},
      {"measurement": "Pre-emergence action against SETVI in %", "setting": "[15]", "value": 100, "unit": "%"},
      {"measurement": "Pre-emergence action against ABUTH in %", "setting": "[16]", "value": 90, "unit": "%"},
      {"measurement": "Pre-emergence action against AMARE in %", "setting": "[17]", "value": 100, "unit": "%"},
      {"measurement": "Pre-emergence action against MATIN in %", "setting": "[18]", "value": 100, "unit": "%"},
      {"measurement": "Pre-emergence action against PHBPU in %", "setting": "[19]", "value": 100, "unit": "%"},
      {"measurement": "Pre-emergence action against POLCO in %", "setting": "[20]", "value": 90, "unit": "%"},
      {"measurement": "Pre-emergence action against VERPE in %", "setting": "[21]", "value": 100, "unit": "%"}
    ]}
  ]
}
